The values that follow come from US10047096B2, “Substituted pyridobenzodiazepinone-derivatives and use thereof” (Bayer Pharma Aktiengesellschaft, priority 2014, dated 2018).

SMILES strings stand for the structures.

The target in one test is human PDGFRβ (Homo sapiens (Human), UniProt P09619). The test can be described thus: PDGFRβ kinase assay (PDGFRβ-HTRF). The test is classed as biochemical. The following applies: 10 μM ATP; some mean values from multiple determinations. The gist of the method: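 GST-fused human PDGFRβ fragment (R561-L1106) from Sf9 cells was preincubated 15 min with compound in 50 mM HEPES pH 7.5, 10 mM MgCl2, 2.5 mM DTT, 0.01% Triton X-100; substrate was biotinylated poly-Glu,Tyr (4:1).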

The target in test [1] is pPDGFRβ in normal human dermal fibroblasts (NHDF) (Homo sapiens (Human), UniProt P09619). The experiment in a line: Cellular pPDGFRβ inhibition assay. In kind it is cell-based. The following applies: NHDF stimulated with 50 ng/ml PDGF-BB, 1 h. The protocol:
Thereafter, 50 ng/ml recombinant human PDGF-BB (R&D Systems, Cat. No. 220-BB-050) and a dilution series of the test substances to be examined in DMSO were added to the cells. The total volume per well was 100 μl. After incubation under the abovementioned conditions for one hour, the Opti-MEM® I Reduced Serum Medium was tapped out and discarded. Subsequently, the lysis buffer [Phospho PDGFRβ (Tyr751) Assay Whole Cell Lysate Kit, MSD, Cat. No. K150DVD-2] was made up according to the manufacturer's instructions and 70 μl of this mixture per well were added. The lysed cell samples were either stored at −20° C. or analysed immediately after the lysis in a Meso Scale SECTOR® Imager 2400 according to the abovementioned manufacturer's instructions. The measurement data were presented as percentage PDGFRβ stimulation compared to PDGF-BB-stimulated but substance-untreated cells. The IC50 values were calculated by employing the nonlinear regression (curve fit) function of GraphPad Prism 6 (La Jolla, Calif., USA).

Chain of human PDGFRβ (P09619 561-1106): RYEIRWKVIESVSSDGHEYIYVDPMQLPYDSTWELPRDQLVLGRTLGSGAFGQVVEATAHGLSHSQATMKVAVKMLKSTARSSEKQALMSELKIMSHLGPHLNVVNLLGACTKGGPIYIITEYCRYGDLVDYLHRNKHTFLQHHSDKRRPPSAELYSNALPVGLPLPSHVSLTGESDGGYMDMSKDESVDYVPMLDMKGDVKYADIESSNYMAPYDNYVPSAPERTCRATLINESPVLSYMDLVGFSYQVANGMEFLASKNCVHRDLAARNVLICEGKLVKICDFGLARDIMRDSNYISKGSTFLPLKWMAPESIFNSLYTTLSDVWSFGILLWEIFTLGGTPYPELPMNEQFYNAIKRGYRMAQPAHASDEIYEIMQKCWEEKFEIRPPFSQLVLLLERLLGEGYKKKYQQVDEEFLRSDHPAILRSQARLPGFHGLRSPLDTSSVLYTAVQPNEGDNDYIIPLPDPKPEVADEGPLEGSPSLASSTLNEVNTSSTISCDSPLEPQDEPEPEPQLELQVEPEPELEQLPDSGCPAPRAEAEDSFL
Chain of pPDGFRβ in normal human dermal fibroblasts (NHDF) (P09619 33-1106): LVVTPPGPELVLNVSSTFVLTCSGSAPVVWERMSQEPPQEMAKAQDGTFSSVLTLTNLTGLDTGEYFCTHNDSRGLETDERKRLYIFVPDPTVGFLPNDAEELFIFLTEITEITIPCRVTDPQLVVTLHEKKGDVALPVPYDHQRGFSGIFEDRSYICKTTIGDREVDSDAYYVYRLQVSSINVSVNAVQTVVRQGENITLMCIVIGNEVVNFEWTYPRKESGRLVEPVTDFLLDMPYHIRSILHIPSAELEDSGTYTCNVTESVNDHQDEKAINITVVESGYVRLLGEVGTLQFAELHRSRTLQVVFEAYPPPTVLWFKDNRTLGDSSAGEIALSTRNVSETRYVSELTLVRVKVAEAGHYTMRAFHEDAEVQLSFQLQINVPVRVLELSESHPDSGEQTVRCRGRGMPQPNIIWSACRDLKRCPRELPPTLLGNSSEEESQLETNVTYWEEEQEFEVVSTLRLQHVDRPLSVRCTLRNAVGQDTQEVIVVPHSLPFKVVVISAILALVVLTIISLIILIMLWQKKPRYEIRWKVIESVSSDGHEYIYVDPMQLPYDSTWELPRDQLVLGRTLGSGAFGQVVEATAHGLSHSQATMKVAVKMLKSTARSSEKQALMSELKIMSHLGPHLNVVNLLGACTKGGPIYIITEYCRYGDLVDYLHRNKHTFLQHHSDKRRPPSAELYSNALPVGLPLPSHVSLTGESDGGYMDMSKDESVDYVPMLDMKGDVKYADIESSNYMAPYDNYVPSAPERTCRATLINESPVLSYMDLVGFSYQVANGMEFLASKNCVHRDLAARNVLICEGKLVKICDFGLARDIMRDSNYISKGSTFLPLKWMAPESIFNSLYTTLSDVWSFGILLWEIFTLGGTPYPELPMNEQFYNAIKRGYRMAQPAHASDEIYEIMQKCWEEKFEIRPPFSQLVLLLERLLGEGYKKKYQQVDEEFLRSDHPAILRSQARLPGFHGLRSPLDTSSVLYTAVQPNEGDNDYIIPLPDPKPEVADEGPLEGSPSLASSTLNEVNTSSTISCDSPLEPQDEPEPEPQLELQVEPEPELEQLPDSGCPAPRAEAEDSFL

As for `CCN(CC)Cc1ccc2c(c1)NC(=O)c1c(Nc3cc(O)c(Cl)cc3F)ccnc1N2` [Example 174, 4-[(4-Chloro-2-fluoro-5-hydroxyphenyl)amino]-8-[(diethylamino)methyl]-6,11-dihydro-5H-pyrido[2,3-b][1,5]benzodiazepin-5-one], the IC50 (in general, the concentration needed to halve the response being measured) was 1.25 nM at human PDGFRβ and 106 nM in test [1].

As to `CCN(C)Cc1ccc2c(c1)NC(=O)c1c(Nc3cc(O)c(C)cc3F)ccnc1N2` [Example 49, 8-{[Ethyl(methyl)amino]methyl}-4-[(2-fluoro-5-hydroxy-4-methylphenyl)amino]-6,11-dihydro-5H-pyrido[2,3-b][1,5]benzodiazepin-5-one], the half-maximal inhibitory concentration (IC50) at human PDGFRβ was found to be 0.487 nM; in test [1], 41.1 nM.

In the case of `Cc1cc(F)c(Nc2ccnc3c2C(=O)Nc2cc(CNC4CC(O)C4)ccc2N3)cc1O` (stereo not drawn) [Example 187, 4-[(2-Fluoro-5-hydroxy-4-methylphenyl)amino]-8-{[(3-hydroxycyclobutyl)amino]methyl}-6,11-dihydro-5H-pyrido[2,3-b][1,5]benzodiazepin-5-one], the IC50 against human PDGFRβ is 1.51 nM; in test [1], 41.3 nM.
